Experiments:
Type in all cases: cell-based
[1] = MTT assay cell viability
Experimental: All the three cell lines (10,000 cells/200 μl medium) were cultured in their respective media in 96-well plates until they reached 60% confluency. Hydrogels and doxycycline were added in their respective wells. Plates were incubated at 37° C., 5% CO2, for 24 h. Media were removed and 200 μl of MTT solution (0.5 mg/ml prepared in phosphate buffer saline (PBS, Himedia, Catalog #TS1119)) was added to each well. Plate was incubated in dark at 37° C., 5% CO2 for 4h. MTT solution was then removed and 100 μl demthyl sulfoxide (DMSO) was added to each well to dissolve the formazan crystal. Absorbance was calculated at 570 nm in the multiplate reader. Percent of cell viability was calculated using Equation 2.
Where, O.D. is optical density at 570 nm.

[2] = system: S. aureus; assay: Zone of inhibition on agar plates; conditions: Staphylococcus aureus, 37° C., 24 h, 25 mg hydrogel with 2 mg drug
Experimental: (§1) S. aureus and S. mutans were cultured in nutrient broth and spread onto agar plates. Hydrogels (25 mg SF doxy hydrogel having 5 mm diameter with 2 mg drug) were kept in each plate in the center on the media and for doxycycline, drug was added in the center where the media was punched out. Plates were incubated at 37° C. for 24 h. After the incubation period, radius of the zone of inhibition was measured in each plate.

[3] = system: S. mutans; assay: Zone of inhibition on agar plates; conditions: Streptococcus mutans, 37° C., 24 h, 25 mg hydrogel with 2 mg drug
Experimental: as §1

C[C@H]1c2cccc(O)c2C(=O)C2=C(O)[C@]3(O)C(=O)C(C(N)=O)=C(O)[C@@H](N(C)C)[C@@H]3[C@@H](O)[C@@H]21 [doxycycline]
viability at 24 h ([1]; human, HDFC cells): 40%
viability at 24 h ([1]; human, MG63 cells, MG63, 24 h): 40%
viability at 24 h ([1]; mouse, MC3T3 cells, MC3T3, 24 h): 40%
zone of inhibition at 2000 µg/disc [2]: 10 mm
zone of inhibition at 2000 µg/disc [3]: 25 mm
